From paper PMC3740683, “ML212: A small-molecule probe for investigating fluconazole resistance mechanisms in Candida albicans” (Beilstein Journal of Organic Chemistry, 2013)

Test: Secondary assay 3: fibroblast toxicity
Format: cell-based
Settings: mouse, NIH-3T3 fibroblasts, murine 3T3 fibroblasts
Protocol: 11) Read relative fluorescence intensity (RFU) of wells on a standard plate reader as […]
measure of relative fungal growth. EnVision (Perkin Elmer) plate reader settings: […]
Secondary assay 3: fibroblast toxicity
Clear, flat-bottom, black, 384-well plates (Corning Catalog no. 3712BC Lot no.
35808016); geldanamycin (AG Scientific Catalog no. G-1047) 15 mM stock solution in […]
DMSO; fluconazole (Sequoia Research Ltd.) 2 mg/mL stock solution in PBS; Alamar […]
Blue (AG Scientific Catalog no. DAL1100, Lot no. 151016SA); PBS w/o calcium and […]
magnesium (Cellgro Catalog no. 21-040-CV)
Optimem medium (Invitrogen Catalog no. 31985-070; Lot no. 548536); 2.5% (v/v) fetal […]
bovine serum (Hyclone Catalog no.30071.03; Lot no. ARF26748); 1% (v/v) Pen/Strep […]
Test strain: NIH-3T3 mammalian fibroblasts (ATCC CRL No. 1658) […]
1) Plate cells in 384-well plates at 6,000 cells/well in 20 µL assay medium.
2) Incubate plates overnight at 37 °C under 5% CO2.
1) After overnight culture, pin compounds into wells at 100 nL/well using the CyBio […]
CyBi-Well pinning instrument.
2) After pinning compounds, add 20 µL of assay medium supplemented with […]
fluconazole to each well. […]
6) Read the relative fluorescence intensity (RFU) of wells on a standard plate reader as a measure of relative cell growth. EnVision (Perkin Elmer) plate reader […]
setup: Ex 544 nm, Em […], bandwidth12 nm, top read.

SMILES: COC(=O)Cn1nc(-c2cccc(OC)c2)c2ccccc21 [Compound 36]
- IC50 at 48 h: > 26 µM
